The values that follow come from paper PMC8244813 (Nutrition and cancer, 2019).

SMILES strings stand for the structures. Where two headings read alike, the source gives them in different places.

In data set [1] the test system is AMACR expression in colon cancer Caco-2 cells. The settings on record: SFN treatment; cited from earlier work.
The subject of data set [2] is AMACR mRNA in LNCaP cells. The note with it: 6 and 24 h after a single SFN treatment; cited from earlier work.
Data set [3] in a line: SFN metabolites in plasma by LC-MS/MS. The note with it: BSE group n=42; for Plasma level of individual SFN metabolite, postintervention, Mean (SE): after 200 μmol SFN daily, 4–8 wk; for Plasma level of individual SFN metabolite, preintervention, Mean (SE): baseline before supplementation.
For data set [4] the following is noted: in vivo.

For the compound `C[S+]([O-])CCCCN=C=S` (stereo not shown) [SFN, sulforaphane], the “AMACR expression in colon cancer Caco-2 cells” value in data set [1] is given as “significantly decrease AMACR expression”. Further, the “AMACR mRNA levels in LNCaP cells” value in data set [2] is listed as “significantly downregulated”. Further, in data set [3], the “Plasma level of individual SFN metabolite, change (post minus pre), Mean (SE)” value was 0.0001 (0.0001) μM; the “Plasma level of individual SFN metabolite, postintervention, Mean (SE)” value (shortened to “Plasma level … postintervention, Mean (SE)”) was 0.0001 (0.0001) μM; the “Plasma level of individual SFN metabolite, preintervention, Mean (SE)” value (shortened to “Plasma level … preintervention, Mean (SE)”) was 0.00 (0.00) μM.
As for `C[S+]([O-])CCCCNC(=S)SCC(N)C(=O)NCC(=O)O` (stereo not shown) [SFN-CG, SFN-cysteinylglycine], in data set [4], the “Plasma level of individual SFN metabolite, change (post minus pre), Mean (SE)” value is given as 0.04 (0.01) μM and the “Plasma level … preintervention, Mean (SE)” value is 0.00 (0.00) μM.
As to `C[S+]([O-])CCCCNC(=S)SCC(N)C(=O)O` (stereo not shown) [SFN-Cys, SFN-cysteine], in data set [3], the “Plasma level of individual SFN metabolite, change (post minus pre), Mean (SE)” value is given as 0.02 (0.01) μM; the “Plasma level … postintervention, Mean (SE)” value is reported as 0.02 (0.01) μM; the “Plasma level … preintervention, Mean (SE)” value was 0.00 (0.00) μM.
Consider `C[S+]([O-])CCCCNC(=S)SC[C@H](NC(=O)CC[C@H](N)C(=O)O)C(=O)NCC(=O)O` (stereo partly shown) [SFN-GSH, SFN-glutathione], for which, in data set [3], the “Plasma level of individual SFN metabolite, change (post minus pre), Mean (SE)” value is recorded as 0.03 (0.01) μM; the “Plasma level … postintervention, Mean (SE)” value is reported as 0.03 (0.01) μM; the “Plasma level … preintervention, Mean (SE)” value is given as 0.00 (0.00) μM.
Take `CC(=O)N[C@@H](CSC(=S)NCCCC[S+](C)[O-])C(=O)O` (stereo partly drawn) [SFN-NAC, SFN N-acetyl-L-cysteine]: in data set [3], the “Plasma level of individual SFN metabolite, change (post minus pre), Mean (SE)” value was 0.03 (0.01) μM; the “Plasma level … postintervention, Mean (SE)” value is 0.03 (0.01) μM; the “Plasma level … preintervention, Mean (SE)” value is 0.00 (0.00) μM.
